According to PMC2922946 (Bioorganic & medicinal chemistry, 2010):
Values belong to the compound of their own block, whether it stands above or below them. Where a SMILES comes first, the peptide text is derived from it. The star is where a group is joined. Boc = CC(C)(C)OC(=O)*

Key:
[1] = target: Hdm2–p53 complex (Homo sapiens, UniProt Q00987); assay: Competitive ELISA, Hdm2–p53 inhibition; format: biochemical; settings: for % Inhibition at 560 μM: ELISA, Hdm2 (1.5 μM), peptide 560 μM
[2] = target: T1, Hdmx–p53 complex (Homo sapiens, UniProt O15151); assay: Competitive ELISA, Hdmx–p53 inhibition; format: biochemical; settings: for activity against the Hdmx–p53 complex (in words) / % inhibition at 320 μM: ELISA; for % inhibition at 320 μM: Hdmx (200 nM), peptide 320 μM
T1 sequence (O15151 1-189): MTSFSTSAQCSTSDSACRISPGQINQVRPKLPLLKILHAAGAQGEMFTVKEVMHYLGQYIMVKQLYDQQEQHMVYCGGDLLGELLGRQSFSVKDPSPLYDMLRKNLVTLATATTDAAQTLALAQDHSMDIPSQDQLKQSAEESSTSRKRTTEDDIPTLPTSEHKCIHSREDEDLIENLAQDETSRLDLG

Sequence of Hdm2–p53 complex (Q00987 1-188, one chain of several): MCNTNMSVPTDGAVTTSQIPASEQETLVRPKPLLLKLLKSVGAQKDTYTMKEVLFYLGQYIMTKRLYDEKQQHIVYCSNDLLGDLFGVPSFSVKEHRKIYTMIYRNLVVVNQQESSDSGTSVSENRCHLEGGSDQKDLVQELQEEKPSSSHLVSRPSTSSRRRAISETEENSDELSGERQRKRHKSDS

Compound: Boc–FYYV–N(CH2)5 [Compound 2a]
% Inhibition at 560 μM [1]: No Inhibition | activity toward Hdm2–p53 complex ([1]; at concentrations of up to 560 μM): no activity

Compound: Boc–WF–N(CH2)5 [Compound 4b]
activity against the Hdmx–p53 complex (in words) [2]: measurable inhibition | % inhibition at 320 μM [2]: 13 ± 1%

Compound: Boc–IFYYV–N(CH2)5 [Compound 2b]
% Inhibition at 560 μM [1]: 16 ± 1%

Compound: CC[C@H](C)[C@@H]1NC(=O)[C@H](C)NC(=O)[C@H](C(C)C)NC(=O)[C@H](Cc2ccc(O)cc2)NC(=O)[C@H](Cc2ccc(O)cc2)NC(=O)[C@H](Cc2ccccc2)NC1=O [Compound 3, c-(AIFYYV)] (cyclo(AIFYYV))
antagonism of the Hdmx–p53 complex ([2]; wide range of concentrations (up to 1 mM)): did not antagonize | level of activity lower than that of the decapeptide control ([1]; Hdm2–p53 ELISA, versus control ETFSDLWKLL): approximately 13 fold

More lines, now with the values ahead:

activity against Hdm2–p53 complex ([1]; concentration not given): no activity
Compound: CC(C)CNC(=O)[C@H](Cc1ccccc1)NC(=O)[C@H](Cc1c[nH]c2ccccc12)NC(=O)[C@H](CCCNC(=N)N)NC(=O)OCc1ccccc1 [Compound 12F]

activity against the Hdmx–p53 complex (in words) [2]: dramatic reduction of activity | % inhibition at 320 μM [2]: 13 ± 1%
Compound: Boc–DLRWF–N(CH2)5 [Compound 7b]

inhibition at 320 µM ([2]; read-out: % inhibition at 320 μM): 12 ± 1%
Compound: CC(C)C[C@@H]1NC(=O)[C@H](CC(=O)O)NC(=O)[C@H](C)NC(=O)[C@H](Cc2ccccc2)NC(=O)[C@H](Cc2c[nH]c3ccccc23)NC(=O)[C@H](CCCNC(=N)N)NC1=O [Compound 8, c-(ADLRWF)] (cyclo(ADLRWF))

% inhibition at 320 μM [2]: No Inhibition
Compound: CC(C)(C)OC(=O)N[C@@H](CCCNC(=N)N)C(=O)N[C@@H](Cc1c[nH]c2ccccc12)C(=O)N[C@@H](Cc1ccccc1)C(N)=O [Compound 5a, Boc–RWF–NH2] (Boc-Arg-Trp-Phe-NH2)

% inhibition at 320 μM [2]: No Inhibition
Compound: Boc-DLRWF-NH2 [Compound 7a]
